Test results published in US4883863A, “Tripeptide derivatives and antiplasmin agents containing the same” (Nitto Boseki Co., Ltd., priority 1987, dated 1989).
Where a name gives a salt, the structure may show the parent alone. Where a SMILES comes first, the peptide text is derived from it. [ ]: non-standard residue; d: D form. The star is where a group is joined. Tos = Cc1ccc(S(=O)(=O)*)cc1; Moc = COC(=O)*; For = O=C*

Assays:
Type in all cases: biochemical
trypsin = biological target: T1, trypsin (Bos taurus, UniProt P00760); test: Trypsin-inhibiting activity, synthetic substrate PS-915; details: Table 4; PS-915, pH 8.0, 37° C.
T1 construct: purchased Worthington 3703
T1 sequence (P00760 24-246): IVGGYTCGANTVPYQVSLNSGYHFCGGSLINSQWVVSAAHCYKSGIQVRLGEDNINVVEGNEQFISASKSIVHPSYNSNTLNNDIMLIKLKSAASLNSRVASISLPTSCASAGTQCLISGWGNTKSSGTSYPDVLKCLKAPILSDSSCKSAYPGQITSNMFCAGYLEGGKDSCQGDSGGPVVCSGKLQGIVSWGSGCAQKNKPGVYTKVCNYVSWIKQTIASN
Description: (§1) Synthetic substrates used for testing the inhibitory activity of the inhibitors on decomposition of substrates by the enzymes were as follows. For plasmin, PS-994 (H--D--Lys(Tos)--Phe--Lys--CHA·2HCl, mfd. by NITTO BOSEKI Co., Ltd.) was used; for thrombin and trypsin, PS-915 (H--D--Phe--Pro--Arg--CHA·2HCl, mfd. by NITTO BOSEKI Co., Ltd.); for Factor Xa, PS-2000 (Z--D--Lys--(HCO)--Gly--Arg--CHA·HCl, mfd. by NITTO BOSEKI Co., Ltd.); and for kallikrein, S-2302 (H--D--Pro--Phe--Arg--pNA, mfd., by Kabi Co., Ltd.).
(§2) As plasmin, standard plasmin of Sankyo Color Test α2 -D1 Kit was used in an amount of 0.3CU/ml. As thrombin, that of Sankyo Color Test ATIII kit was used in an amount of 1.2 NIHU/ml. As trypsin, that of cord 3703 of Worthington was used in an amount of 2 μg/ml. As human Factor Xa, that of Boehringer Manheim Co., Ltd. was used in an amount of 0.25 U/ml. As human plasma kallikrein, that of Kabi Co., Ltd. was used in an amount of 0.12 U/ml. As terminating color reagents, those for Sankyo Color Test Kit were used. The reactions were carried out at 37° C. unless otherwise specified.
Each of aqueous solutions (0.1 ml) of the inhibitors which solutions were various in their respective concentrations was added to 0.5 ml of a buffer solution (a 150 mM aqueous sodium chloride solution containing 150 mM Tris, pH 8.0), and the resulting solution was heated for 5 minutes. Then, 0.1 ml of a trypsin solution was added, followed by incubation for 5 minutes. Subsequently, 0.1 ml of a PS-915 solution (10 mM) was added, followed by incubation for 5 minutes. Thereafter, 2 ml of terminating color reagent [containing […] of soybean trypsin inhibitor (No. T-9003, available from Sigma Chemical Co.)] was added. After standing for 10 minutes, absorbance at 700 nm was measured and IC50 was determined in the manner described above.

human Factor Xa = biological target: T2, human Factor Xa (Homo sapiens, UniProt P00742); test: Factor Xa-inhibiting activity, synthetic substrate PS-2000; details: Table 4; PS-2000, pH 8.5, 37° C.
T2 construct: purchased Boehringer Manheim Co., Ltd
T2 sequence (P00742 235-488 limits assumed): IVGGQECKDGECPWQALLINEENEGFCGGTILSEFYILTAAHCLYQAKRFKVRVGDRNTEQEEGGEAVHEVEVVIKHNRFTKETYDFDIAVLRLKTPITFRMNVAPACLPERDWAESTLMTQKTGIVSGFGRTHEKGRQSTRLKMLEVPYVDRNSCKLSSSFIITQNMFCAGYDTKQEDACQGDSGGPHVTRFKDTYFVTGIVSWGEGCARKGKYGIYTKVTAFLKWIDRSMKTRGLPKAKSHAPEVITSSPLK
T2 sequence (P00742 41-179 partner limits assumed): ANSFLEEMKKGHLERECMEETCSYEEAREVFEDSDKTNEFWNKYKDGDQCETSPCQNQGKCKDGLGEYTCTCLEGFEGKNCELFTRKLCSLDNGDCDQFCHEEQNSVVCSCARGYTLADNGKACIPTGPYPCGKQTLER
Description: as §1, §2
Each of aqueous solutions (1 ml) of the inhibitors which solutions were various in their respective concentrations was added to 0.3 ml of a buffer solution (a 150 mM aqueous sodium chloride solution containing 50 mM Tris, pH 8.5 ), and the resulting solution was heated for 5 minutes. Then, 0.1 ml of a Factor Xa solution (a 150 mM aqueous sodium chloride solution containing 50 mM Tris and 20 mM calcium chloride, pH 8.5) was added, followed by incubation for 5 minutes. Subsequently, a 5% polyvinyl pyrrobidone solution (0.1 ml) containing 10 mM PS-2000 was added, followed by incubation for 5 min. Thereafter, 2 ml of terminating color reagent was added. After standing for 10 minutes, absorbance at 700 nm was measured and IC50 was determined in the manner described above.

human plasma kallikrein = biological target: T3, human plasma kallikrein (Homo sapiens, UniProt P03952); test: Kallikrein-inhibiting activity, synthetic substrate S-2302; details: Table 4; S-2302, pH 8.0, 37° C.
T3 construct: purchased Kabi Co., Ltd
T3 sequence (P03952 391-638 limits assumed): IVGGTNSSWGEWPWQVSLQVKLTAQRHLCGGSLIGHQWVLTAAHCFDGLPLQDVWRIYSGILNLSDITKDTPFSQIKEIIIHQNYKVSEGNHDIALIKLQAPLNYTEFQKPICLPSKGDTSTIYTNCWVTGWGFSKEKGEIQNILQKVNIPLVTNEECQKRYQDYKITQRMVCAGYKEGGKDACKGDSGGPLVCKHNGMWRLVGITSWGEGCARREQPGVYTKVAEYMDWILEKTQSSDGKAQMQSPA
T3 sequence (P03952 20-390 partner limits assumed): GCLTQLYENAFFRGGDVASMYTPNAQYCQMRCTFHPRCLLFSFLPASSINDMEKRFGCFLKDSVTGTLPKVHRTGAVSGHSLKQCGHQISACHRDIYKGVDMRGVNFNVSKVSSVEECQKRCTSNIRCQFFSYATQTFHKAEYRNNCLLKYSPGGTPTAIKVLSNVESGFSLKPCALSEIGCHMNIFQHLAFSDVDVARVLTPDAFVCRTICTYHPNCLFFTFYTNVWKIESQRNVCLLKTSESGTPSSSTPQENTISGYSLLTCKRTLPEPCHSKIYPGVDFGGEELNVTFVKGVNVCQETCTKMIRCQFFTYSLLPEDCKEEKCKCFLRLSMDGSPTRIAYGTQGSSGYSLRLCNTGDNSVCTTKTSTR
Description: as §1, §2
Each of aqueous solutions (0.1 ml) of the inhibitors which solutions were various in their respective concentrations was added to 0.4 ml of a buffer solution (a 150 mM aqueous sodium chloride solution containing 50 mM Tris, pH 8.0), and the resulting mixture was heated for 5 minutes. Then, 0.1 ml of a kallikrein solution [containing 0.5% bovine serum albumin (No. A8022 available from Sigma Chemical Co.)] was added, followed by incubation for 5 minutes. Subsequently, a 10 mM S-2302 aqueous solution (0.1 ml) was added. The reaction was terminated by addition of a 20% aqueous acetic acid solution. Absorbance at 405 nm was measured and IC50 was measured in the manner described above.

plasmin = plasmin (Homo sapiens, UniProt P00747); test: Inhibitory activity on fibrinogen decomposition by plasmin (natural substrate); set-up: purchased Sankyo (Color Test α2 -D1 Kit); details: Table 4; 2% fibrinogen, pH 7.2, 37° C.
Chain of plasmin (P00747 581-810 limits assumed, species assumed): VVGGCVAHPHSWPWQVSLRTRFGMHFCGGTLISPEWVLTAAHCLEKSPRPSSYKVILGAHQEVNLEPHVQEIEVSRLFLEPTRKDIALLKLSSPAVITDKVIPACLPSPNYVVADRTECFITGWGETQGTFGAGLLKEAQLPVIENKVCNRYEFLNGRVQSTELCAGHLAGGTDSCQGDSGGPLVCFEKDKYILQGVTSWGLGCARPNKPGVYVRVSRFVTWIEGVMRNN
Chain of plasmin (P00747 97-580 partner limits assumed, species assumed): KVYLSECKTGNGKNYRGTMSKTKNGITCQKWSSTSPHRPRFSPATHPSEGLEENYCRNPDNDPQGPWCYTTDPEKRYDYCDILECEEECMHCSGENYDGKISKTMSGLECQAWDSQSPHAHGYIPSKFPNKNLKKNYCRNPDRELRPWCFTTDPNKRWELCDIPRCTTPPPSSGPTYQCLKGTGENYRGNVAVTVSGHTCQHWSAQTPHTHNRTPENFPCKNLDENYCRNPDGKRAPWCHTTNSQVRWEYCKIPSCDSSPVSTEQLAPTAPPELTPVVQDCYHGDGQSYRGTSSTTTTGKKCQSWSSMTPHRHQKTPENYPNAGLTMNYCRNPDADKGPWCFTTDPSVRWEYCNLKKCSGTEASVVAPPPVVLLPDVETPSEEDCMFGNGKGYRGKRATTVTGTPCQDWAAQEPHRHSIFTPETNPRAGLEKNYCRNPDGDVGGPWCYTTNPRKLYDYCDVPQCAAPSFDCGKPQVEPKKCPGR
Experimental: The determination was carried out by a modification of the method described in Takaaki Aoyagi. "Koso Sogai Busshitsu (Enzyme Inhibiting Substances)" Kyoritsu Zensho, p. 12.
To 0.3 ml of phosphate buffer (pH 7.2) was added 0.1 ml of an aqueous solution of each inhibitor, and the resulting solution was heated at 37° C. for 5 minutes. Then, 0.1 ml of a plasmin solution (12 CU/ml) was added, followed by incubation for 5 minutes. Subsequently, 0.7 ml of phosphate buffer (pH 7.2) containing 2% fibrinogen was added, followed by incubation for 15 minutes. After completion of the reaction, a 12% aqueous hydrochloride acid solution (1.5 ml) containing 6% trichloroacetic acid was added, and the resulting mixture was lightly shaken, allowed to stand at room temperature for 15 minutes, and then centrifuged (3000 r.p.m., 10 minutes). The absorbance of the supernatant was measured at 280 nm, and a concentration of the inhibitor at which the absorbance was the same as when the amount of the enzyme added was reduced by half was determined as IC50.

thrombin = biological target: T4, thrombin (Homo sapiens, UniProt P00734); test: Thrombin-inhibiting activity, synthetic substrate PS-915; details: Table 4; PS-915, pH 8.5, 37° C.
T4 construct: purchased Sankyo (Color Test ATIII kit)
Description: as §1, §2
Each of aqueous solutions (0.1 ml) of the inhibitors which solutions were various in their respective concentrations was added to 0.4 ml of a buffer solution (a 150 mM aqueous sodium chloride solution containing 150 mM Tris, pH 8.5), and the resulting solution was heated for 5 minutes. To this solution was added 0.2 ml of thrombin solution, followed by incubation for 5 minutes. Then, 0.1 ml of a PS-915 solution (10 mM) was added, followed by incubation for 5 minutes. Thereafter, 2 ml of terminating color reagent was added. After standing for 10 minutes, absorbance at 700 nm was measured, and IC50 was determined in the manner described above.

SMILES	IC50 (trypsin)	IC50 (human Factor Xa)	IC50 (human plasma kallikrein)	IC50 (plasmin)	IC50 (thrombin)
COC(=O)N[C@H](CCCCNS(=O)(=O)c1ccc(C)cc1)C(=O)N[C@@H](Cc1ccccc1)C(=O)N[C@H](C=O)CCCCN [Compound 2, N-α-Methoxycarbonyl-N-ε-(p-tosyl)-D-lysyl-L-phenylalanyl-L-lysinal hydrochloride] (Moc-[dK](Tos)-Phe-Lys-aldehyde)	2.5 µM	22 µM	0.36 µM	0.13 µM	> 1000 µM
Cc1ccc(S(=O)(=O)NCCCC[C@@H](NC=O)C(=O)N[C@@H](Cc2ccccc2)C(=O)N[C@H](C=O)CCCCN)cc1 [Compound 4, N-α-Formyl-N-ε-(p-tosyl)-D-lysyl-L-phenylalanyl-L-lysinal hydrochloride] (For-[dK](Tos)-Phe-Lys-aldehyde)	7.8 µM	85 µM	1 µM	0.19 µM	> 1000 µM
